Data on 17 compounds can be found in PubChem BioAssay AID266 (DTP/NCI, 2004).

In the experiment the test system is Nude mice, LX-1 lung xenograft intrarenal, tumor weight T/C. In words: NCI In Vivo Anticancer Drug Screen. Data for tumor model Human Lung LX-1 Xenograft (intrarenal inoculation) in NU/NU BALB/C (nude) mice. To be noted: endpoint: mean tumor weight change, higher = larger tumour. As to the method:
The antitumor activity of compounds was measured in mice bearing transplantable tumors. Survival or tumor size were measured and the results are expressed as the measurement made in the treated group (T) divided by the measurement made in the vehicle treated control group (C). The tumor model used in this assay is Human Lung LX-1 Xenograft (intrarenal inoculation) in NU/NU BALB/C (nude) mice
(In general: Xenograft models place foreign cells or tissue in a host animal.)

[1] abbreviates: dose: 50.0 mg/kg/injection, schedule: Q01DX010 (sc), vehicle: Klucel (hydroxypropylcellulose) (HPC).
[2] abbreviates: dose: 100.0 mg/kg/injection, schedule: Q01DX010 (sc), vehicle: Klucel (hydroxypropylcellulose) (HPC).
Setting [3] is: dose: 200.0 mg/kg/injection, schedule: Q01DX010 (sc), vehicle: Klucel (hydroxypropylcellulose) (HPC).
Setting [4] is: dose: 150.0 mg/kg/injection, schedule: Q04DX003 (ip), vehicle: Klucel (hydroxypropylcellulose) (HPC).

Molecules are shown by their SMILES. Several values for one entry are separate records, joined by “and”; a condition that tells them apart may be missing. Equal values may be shown once. Records with an inconclusive call do not appear.

On to `COc1ccc(N=N/N=c2\sc3cc(OC)ccc3n2C)cc1`, for which the T/C by setting is: (dose: 30.0 mg/kg/injection, schedule: Q04DX003 (ip), vehicle: saline with Tween-80) 117 % of control; (dose: 60.0 mg/kg/injection, schedule: Q04DX003 (ip), vehicle: saline with Tween-80) 94 % of control; (dose: 75.0 mg/kg/injection, schedule: Q04DX003 (ip), vehicle: saline with Tween-80) 99 % of control; (dose: 120.0 mg/kg/injection, schedule: Q04DX003 (ip), vehicle: saline with Tween-80) 55 % of control; (dose: 150.0 mg/kg/injection, schedule: Q04DX003 (ip), vehicle: saline with Tween-80) 80 % of control; (dose: 240.0 mg/kg/injection, schedule: Q04DX003 (ip), vehicle: saline with Tween-80) 67 % of control. For the same compound, the T/C (dose: 300.0 mg/kg/injection, schedule: Q04DX003 (ip), vehicle: saline with Tween-80) is 50 % of control.
As to `CN(C)N=Nc1cccc(C(N)=O)c1`, the T/C is 20 % of control (dose: 25.0 mg/kg/injection, schedule: Q04DX003 (sc), vehicle: Klucel (hydroxypropylcellulose) (HPC)) and -93 % of control (dose: 200.0 mg/kg/injection, schedule: Q04DX003 (sc), vehicle: Klucel (hydroxypropylcellulose) (HPC)).
`C/C(=C\c1ccccc1)[N+](=O)[O-]`: the T/C by setting is: under setting [1], 96 % of control; under setting [2], 97 % of control; under setting [3], 15 % of control.
`CC(CN1CC(=O)NC(=O)C1)N1CC(=O)NC(=O)C1` (stereo unspecified): the T/C is, setting by setting: (dose: 150.0 mg/kg/injection, schedule: Q04DX003 (sc), vehicle: Klucel (hydroxypropylcellulose) (HPC)) 88 % of control; (dose: 300.0 mg/kg/injection, schedule: Q04DX003 (sc), vehicle: Klucel (hydroxypropylcellulose) (HPC)) 94 % of control; (dose: 600.0 mg/kg/injection, schedule: Q04DX003 (sc), vehicle: Klucel (hydroxypropylcellulose) (HPC)) 45 % of control.
Turning to `Cc1cc2nc3[nH]c4ccccc4c3nc2cc1C`, the T/C was 88 % of control (dose: 100.0 mg/kg/injection, schedule: Q01DX010 (sc), vehicle: saline); 190 % of control (dose: 200.0 mg/kg/injection, schedule: Q01DX010 (sc), vehicle: saline); 92 % of control (dose: 400.0 mg/kg/injection, schedule: Q01DX010 (sc), vehicle: saline); 97 % of control (dose: 800.0 mg/kg/injection, schedule: Q01DX010 (sc), vehicle: saline).
Take `C/C(=N\NC(=S)N1CCN(c2ccccn2)CC1)c1ccccn1`: the T/C runs as follows: (dose: 37.5 mg/kg/injection, schedule: Q04DX003 (sc), vehicle: water) 106 % of control; (dose: 75.0 mg/kg/injection, schedule: Q04DX003 (sc), vehicle: water) 102 % of control.
As to `[N-]=[N+]=CC(=O)CCC(N)C(=O)O` (stereo unspecified), the T/C is 119 % of control (dose: 0.05 mg/kg/injection, schedule: Q01DX010 (sc), vehicle: saline); 226 % of control (dose: 0.05 mg/kg/injection, schedule: Q02DX005 (sc), vehicle: saline); 64 % of control (dose: 0.1 mg/kg/injection, schedule: Q01DX010 (sc), vehicle: saline); 187 % of control (dose: 0.1 mg/kg/injection, schedule: Q02DX005 (sc), vehicle: saline); 110 % of control (dose: 0.2 mg/kg/injection, schedule: Q02DX005 (sc), vehicle: saline); 34 % of control (dose: 0.4 mg/kg/injection, schedule: Q01DX010 (sc), vehicle: saline). The T/C (dose: 3.2 mg/kg/injection, schedule: Q02DX005 (sc), vehicle: saline) is 9 % of control.
As for `CC(=O)NC(CCc1ccc(Cl)c(Cl)c1)c1cccc(O)c(=O)c1` (stereo unspecified), the T/C was 52 % of control (dose: 50.0 mg/kg/injection, schedule: Q04DX003 (ip), vehicle: Klucel (hydroxypropylcellulose) (HPC)); 62 % of control (dose: 100.0 mg/kg/injection, schedule: Q04DX003 (ip), vehicle: Klucel (hydroxypropylcellulose) (HPC)); 57 % of control (dose: 200.0 mg/kg/injection, schedule: Q04DX003 (ip), vehicle: Klucel (hydroxypropylcellulose) (HPC)).
For `CC(=O)O[C@H]1C(=O)[C@@]2(C)[C@H]([C@H](OC(=O)c3ccccc3)[C@]3(O)C[C@H](OC(=O)[C@H](O)[C@@H](NC(=O)c4ccccc4)c4ccccc4)C(C)=C1C3(C)C)[C@]1(OC(C)=O)CO[C@@H]1C[C@@H]2O`, the T/C by setting is: under setting [1], 63 % of control; under setting [2], 93 % of control; under setting [3], 68 % of control; (dose: 400.0 mg/kg/injection, schedule: Q01DX010 (sc), vehicle: Klucel (hydroxypropylcellulose) (HPC)) 51 % of control.
In the case of `O=NN(CCCl)C(=O)NCCCl`, the T/C (dose: 4.0 mg/kg/injection, schedule: Q01DX010 (ip), vehicle: saline) is 32 % of control and 48 % of control; the T/C (dose: 13.33 mg/kg/injection, schedule: Q04DX003 (ip), vehicle: saline) was 9 % of control and 10 % of control; the T/C (dose: 16.0 mg/kg/injection, schedule: Q01DX010 (ip), vehicle: saline) is -69 % of control and -87 % of control; the T/C (dose: 26.66 mg/kg/injection, schedule: Q04DX003 (ip), vehicle: saline) is -21 % of control.
In the case of `N#Cc1cn(C2OC(CO)C(O)C2O)c2ncnc(N)c12` (stereo unspecified), the T/C by setting is: (dose: 1.0 mg/kg/injection, schedule: Q01DX010 (sc), vehicle: saline) 26 % of control; (dose: 2.0 mg/kg/injection, schedule: Q01DX010 (sc), vehicle: saline) 77 % of control.
Consider `O=C1C2CC(Cl)C(SSC3CC4C(=O)N(SC(Cl)(Cl)C(Cl)Cl)C(=O)C4CC3Cl)CC2C(=O)N1SC(Cl)(Cl)C(Cl)Cl` (stereo unspecified), for which the T/C is 83 % of control (dose: 75.0 mg/kg/injection, schedule: Q04DX003 (ip), vehicle: Klucel (hydroxypropylcellulose) (HPC)); 102 % of control under setting [4]; 76 % of control (dose: 300.0 mg/kg/injection, schedule: Q04DX003 (ip), vehicle: Klucel (hydroxypropylcellulose) (HPC)); 48 % of control (dose: 600.0 mg/kg/injection, schedule: Q04DX003 (ip), vehicle: Klucel (hydroxypropylcellulose) (HPC)).
`Oc1c(Cl)cc(Cl)cc1C=NCCSc1ccc(Cl)cc1`: the T/C under setting [4] was 71 % of control and the T/C (dose: 1200.0 mg/kg/injection, schedule: Q04DX003 (ip), vehicle: Klucel (hydroxypropylcellulose) (HPC)) was 70 % of control.
Consider `COc1cccc2c1C(=O)c1c(O)c3c(c(O)c1C2=O)CC(O)(C(=O)CO)CC3OC1CC(N)C(O)C(C)O1` (stereo unspecified), for which the T/C (dose: 50.0 mg/kg/injection, schedule: Q04DX003 (sc), vehicle: water) was 86 % of control; the T/C (dose: 100.0 mg/kg/injection, schedule: Q04DX003 (sc), vehicle: water) was 103 % of control; the T/C (dose: 200.0 mg/kg/injection, schedule: Q04DX003 (sc), vehicle: water) was 90 % of control; the T/C (dose: 400.0 mg/kg/injection, schedule: Q04DX003 (sc), vehicle: water) was 103 % of control.
On to `CC(C)CCCCCCCCCCCCC(=O)NCC(=O)NC1C(C)OC(Nc2ncnc3nc[nH]c23)C(O)C1O` (stereo unspecified), for which the T/C is 69 % of control (dose: 2.0 mg/kg/injection, schedule: Q01DX010 (sc), vehicle: saline with Tween-80); 40 % of control (dose: 4.0 mg/kg/injection, schedule: Q01DX010 (sc), vehicle: saline with Tween-80); 32 % of control (dose: 8.0 mg/kg/injection, schedule: Q01DX010 (sc), vehicle: saline with Tween-80); 17 % of control (dose: 16.0 mg/kg/injection, schedule: Q01DX010 (sc), vehicle: saline with Tween-80).
As to `Nc1ccc(Cn2ccc3c4c(N)nc(N)nc4ccc32)cc1`, the T/C was 68 % of control (dose: 9.38 mg/kg/injection, schedule: Q04DX003 (sc), vehicle: saline with Tween-80); 51 % of control (dose: 18.75 mg/kg/injection, schedule: Q04DX003 (sc), vehicle: saline with Tween-80); 52 % of control (dose: 37.5 mg/kg/injection, schedule: Q04DX003 (sc), vehicle: saline with Tween-80).
Turning to `CC1(C)CC2(C)OC2C2(C1)N=NC(=Nc1ccccc1)O2` (stereo unspecified), the T/C (dose: 300.0 mg/kg/injection, schedule: Q04DX003 (sc), vehicle: saline with Tween-80) is 104 % of control; the T/C (dose: 600.0 mg/kg/injection, schedule: Q04DX003 (sc), vehicle: saline with Tween-80) is 61 % of control; the T/C (dose: 1200.0 mg/kg/injection, schedule: Q04DX003 (sc), vehicle: saline with Tween-80) was 91 % of control.
